From ChEMBL document CHEMBL4823283, “Vomifoliol isolated from mangrove plant Ceriops tagal inhibits the NFAT signaling pathway with CN as the target enzyme in vitro” (Bioorg Med Chem Lett, 2021)

Experiments:
Jurkat [1] = assay: Cytotoxicity against human Jurkat cells assessed as cell survival at 75 to 100 uM measured after 48 hrs by MTT assay relative to control; type: functional; conditions: dose 75-100 µM
Jurkat [2] = assay: Cytotoxicity against human Jurkat cells assessed as cell survival at 1 to 40 uM measured after 48 hrs by MTT assay relative to control; type: functional; conditions: dose 1-40 µM
[3] = biological target: Protein phosphatase 3 catalytic subunit alpha (Homo sapiens) (UniProt Q08209); assay: Inhibition of human calcineurin activity in PMA/ionomycin-induced human Jurkat cells measured after 44 hrs by Malachite green dye based fast green assay; conditions: dose 1-100 µM
Splenocyte [4] = assay: Cytotoxicity against mouse splenocytes assessed as cell survival at 1 to 30 uM measured after 48 hrs by CCK-8 assay relative to control; type: functional; conditions: dose 1-30 µM
[5] = biological target: T1, Nuclear factor of activated T-cells, cytoplasmic 1 (Homo sapiens) (UniProt O95644); assay: Inhibition of human NFAT-1 in human Jurkat cells assessed as decrease of PMA/ionomycin-induced NFAT dephosphorylation measured after 44 hrs by western blot assay; type: cell-based; conditions: dose 5-25 µM
T1 sequence (whole entry): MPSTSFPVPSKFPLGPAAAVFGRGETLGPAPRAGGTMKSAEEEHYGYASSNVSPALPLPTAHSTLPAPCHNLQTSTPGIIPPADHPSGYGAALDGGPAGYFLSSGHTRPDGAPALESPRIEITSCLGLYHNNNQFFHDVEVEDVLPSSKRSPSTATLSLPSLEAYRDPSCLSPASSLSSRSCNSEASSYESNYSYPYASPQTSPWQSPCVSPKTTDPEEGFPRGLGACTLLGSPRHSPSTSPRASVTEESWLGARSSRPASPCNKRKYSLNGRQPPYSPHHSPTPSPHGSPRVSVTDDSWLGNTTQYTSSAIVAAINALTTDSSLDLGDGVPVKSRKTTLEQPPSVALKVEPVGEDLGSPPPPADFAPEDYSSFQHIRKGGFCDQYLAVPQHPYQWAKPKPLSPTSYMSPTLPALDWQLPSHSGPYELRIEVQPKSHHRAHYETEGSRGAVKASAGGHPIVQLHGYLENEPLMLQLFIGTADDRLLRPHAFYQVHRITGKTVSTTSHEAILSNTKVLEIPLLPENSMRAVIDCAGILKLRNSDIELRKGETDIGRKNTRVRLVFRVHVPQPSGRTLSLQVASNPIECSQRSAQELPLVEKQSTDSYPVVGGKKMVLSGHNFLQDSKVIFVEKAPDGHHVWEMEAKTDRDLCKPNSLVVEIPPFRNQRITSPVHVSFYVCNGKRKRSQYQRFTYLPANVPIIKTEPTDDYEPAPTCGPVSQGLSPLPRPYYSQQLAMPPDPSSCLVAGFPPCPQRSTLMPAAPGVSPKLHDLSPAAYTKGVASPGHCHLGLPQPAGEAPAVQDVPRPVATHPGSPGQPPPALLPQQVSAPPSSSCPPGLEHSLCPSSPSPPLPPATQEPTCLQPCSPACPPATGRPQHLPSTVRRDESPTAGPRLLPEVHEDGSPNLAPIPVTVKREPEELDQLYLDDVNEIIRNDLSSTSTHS

Jurkat [6] = assay: Cytotoxicity against human Jurkat cells assessed as inhibition of PMA/ionomycin-induced proliferation measured after 48 hrs by MTT assay; type: functional, cell-based
Splenocyte [7] = assay: Cytotoxicity against mouse splenocytes assessed as cell survival at 50 to 100 uM measured after 48 hrs by CCK-8 assay relative to control; type: functional; conditions: dose 50-100 µM
[8] = biological target: T1, Nuclear factor of activated T-cells, cytoplasmic 1 (Homo sapiens); assay: Inhibition of human NFAT-1 in human Jurkat cells assessed as decrease of PMA/ionomycin-induced IL-2 concentration measured after 44 hrs by western blot assay; type: cell-based; conditions: dose 5-25 µM
Splenocyte [9] = assay: Cytotoxicity against mouse splenocytes assessed as cell survival in presence of ConA measured after 44 hrs by CCK-8 assay; type: functional, cell-based
[10] = Inhibition of calcineurin (unknown origin); parameters: species or system Homo sapiens

- Activity [3]: Dose-Dependent Effect
- Activity [5]: Dose-Dependent Effect
- Activity [8]: Dose-Dependent Effect
- IC50 [10]: 15.1 µM
SMILES: CC1=CC(=O)CC(C)(C)[C@@]1(O)/C=C/[C@@H](C)O [BLUMENOL A]
- Activity (Jurkat [1]): <90%
- Activity (Jurkat [2]): >90%
- Activity (Splenocyte [4]): >90%
- Activity (Jurkat [6]): Dose-Dependent Effect
- IC50 (Jurkat [6]): 20.2 µM
- Activity (Splenocyte [7]): <90%
- Activity (Splenocyte [9]): Dose-Dependent Effect
- IC50 (Splenocyte [9]): 18.7 µM
